Our source for the IC50 and inhibition values is ChEMBL document CHEMBL1151871, “SAR around (l)-S-adenosyl-l-homocysteine, an inhibitor of human DNA methyltransferase (DNMT) enzymes” (Bioorg Med Chem Lett, 2009).

The source made the active and inactive calls. The rule behind the calls is not given here. Bounds are passed on as bounds.

In assay [1] the target is DNA (cytosine-5)-methyltransferase 1 (Homo sapiens, UniProt P26358). The assay is described as follows: Inhibition of human recombinant DNMT1 expressed in baculovirus infected high five insect cells.
Assay [2] has as its target T1, DNA (cytosine-5)-methyltransferase 3B (Homo sapiens, UniProt Q9UBC3). In words: biochemical.
The target in assay [3] is T1, DNA (cytosine-5)-methyltransferase 3B. In words: Inhibition of human recombinant DNMT3b2 expressed in baculovirus infected high five insect cells at 45 uM.

DNA (cytosine-5)-methyltransferase 1, sequence (P26358 whole entry): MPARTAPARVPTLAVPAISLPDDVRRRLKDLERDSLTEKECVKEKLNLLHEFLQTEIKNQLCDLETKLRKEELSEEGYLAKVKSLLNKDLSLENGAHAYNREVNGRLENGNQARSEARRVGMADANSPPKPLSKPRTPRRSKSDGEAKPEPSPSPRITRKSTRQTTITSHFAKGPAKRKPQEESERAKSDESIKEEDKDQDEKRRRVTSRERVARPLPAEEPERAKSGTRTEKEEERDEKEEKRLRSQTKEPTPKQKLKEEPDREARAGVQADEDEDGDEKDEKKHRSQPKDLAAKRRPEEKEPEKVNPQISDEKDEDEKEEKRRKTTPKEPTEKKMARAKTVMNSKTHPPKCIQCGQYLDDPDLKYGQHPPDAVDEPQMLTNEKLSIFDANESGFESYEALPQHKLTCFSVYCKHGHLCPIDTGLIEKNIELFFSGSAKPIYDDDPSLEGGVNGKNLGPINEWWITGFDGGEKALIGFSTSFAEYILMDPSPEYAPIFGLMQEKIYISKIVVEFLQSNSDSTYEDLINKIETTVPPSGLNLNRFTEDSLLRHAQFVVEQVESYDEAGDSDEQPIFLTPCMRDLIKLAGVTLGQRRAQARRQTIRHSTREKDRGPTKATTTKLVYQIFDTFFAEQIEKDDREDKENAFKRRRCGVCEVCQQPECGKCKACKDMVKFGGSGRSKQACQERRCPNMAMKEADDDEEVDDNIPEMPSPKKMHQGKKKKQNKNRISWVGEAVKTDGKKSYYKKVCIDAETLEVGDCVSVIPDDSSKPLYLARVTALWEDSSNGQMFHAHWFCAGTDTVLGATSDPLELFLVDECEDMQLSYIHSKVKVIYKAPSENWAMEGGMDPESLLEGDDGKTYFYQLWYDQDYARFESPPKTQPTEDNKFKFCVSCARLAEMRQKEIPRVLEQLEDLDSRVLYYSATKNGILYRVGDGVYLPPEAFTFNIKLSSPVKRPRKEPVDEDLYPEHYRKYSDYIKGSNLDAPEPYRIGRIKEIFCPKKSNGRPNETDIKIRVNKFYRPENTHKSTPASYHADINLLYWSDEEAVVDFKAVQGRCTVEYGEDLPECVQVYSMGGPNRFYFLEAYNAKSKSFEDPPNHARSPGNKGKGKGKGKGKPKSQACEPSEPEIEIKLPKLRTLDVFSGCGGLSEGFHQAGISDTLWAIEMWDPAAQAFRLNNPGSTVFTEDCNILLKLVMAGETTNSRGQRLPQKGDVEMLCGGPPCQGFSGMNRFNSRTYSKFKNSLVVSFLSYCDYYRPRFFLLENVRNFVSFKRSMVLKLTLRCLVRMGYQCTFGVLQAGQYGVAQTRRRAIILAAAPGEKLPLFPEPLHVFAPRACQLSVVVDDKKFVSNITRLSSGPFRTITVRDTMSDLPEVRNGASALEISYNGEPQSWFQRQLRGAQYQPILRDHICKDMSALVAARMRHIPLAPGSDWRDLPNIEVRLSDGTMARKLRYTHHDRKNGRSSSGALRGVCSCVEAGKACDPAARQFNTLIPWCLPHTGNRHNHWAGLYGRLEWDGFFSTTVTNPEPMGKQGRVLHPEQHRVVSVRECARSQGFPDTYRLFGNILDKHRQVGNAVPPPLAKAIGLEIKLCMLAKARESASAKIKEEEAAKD

With `NC(CCSC[C@H]1O[C@@H](n2cnc3c(NCc4ccccc4)ncnc32)[C@H](O)[C@@H]1O)C(=O)O` (some centres undefined), the IC50 came out at 61 µM in assay [1] and 1 µM in assay [2].

Molecule `N[C@@H](CCSC[C@H]1O[C@@H](n2cnc3c(=O)[nH]cnc32)[C@H](O)[C@@H]1O)C(=O)O` registered an IC50 in assay [2] of over 1000 µM. Consider `CSc1nc(N)c2ncn([C@@H]3O[C@H](CSCCC(N)C(=O)O)[C@@H](O)[C@H]3O)c2n1` (some centres undefined), for which the IC50 was 216 µM in assay [1] and 500 µM in assay [2]. As for `COc1nc(N)c2ncn([C@@H]3O[C@H](CSCCC(N)C(=O)O)[C@@H](O)[C@H]3O)c2n1` (some centres undefined), the IC50 in assay [1] was 75 µM. Moreover, in assay [3], the inhibition result is “inactive”. In assay [2], `Nc1ncnc2c1ncn2[C@@H]1O[C@H](CSCC[C@H](N)C(=O)O)[C@@H](O)[C@H]1O` (racemic) [S-ADENOSYLHOMOCYSTEINE] registered an IC50 of 0.3 µM.

In the case of `Nc1ncnc2c1nnn2[C@@H]1O[C@H](CSCCC(N)C(=O)O)[C@@H](O)[C@H]1O` (some centres undefined), the 50% inhibitory concentration (IC50) in assay [1] is 8 µM.
